Experimental data: publication PMC9822133, “Design, Synthesis and Antiproliferative Evaluation of Bis-Indole Derivatives with a Phenyl Linker: Focus on Autophagy” (Molecules, 2022)

Legend:
MCF10A = assay: MTT screening assay, MCF10A non-cancer cells; format: cell-based, human
Description: The ability of newly synthesized indole phytoalexins to suppress cell proliferation was screened in vitro on eight cancer cell lines including human colorectal carcinoma (Caco-2 and HCT116), human cervical cancer (HeLa), human breast adenocarcinoma (MCF-7, MDA-MB-231), human alveolar adenocarcinoma (A549) and human leukemic T cell lymphoma (Jurkat), and two non-cancer cell lines (MCF-10A, Cos-7).
The cell lines used for this study were Caco-2 (human colorectal adenocarcinoma cell line, American Type Culture Collection, Manassas, VA, USA (ATCC)), HCT116 (human colorectal carcinoma cells European Collection of Authenticated Cell Cultures, Salisbury, UK (ECACC)), HeLa (human cervical tumor cells, ECACC), MCF-7 (human breast tumor cells, ECACC), MDA-MB-231 (human breast tumor cells, ATCC), A549 (human lung carcinoma cells, ATCC), BLM (human melanoma lung metastases, a gift from prof. K. Smetana, Institute of Anatomy, Charles University in Prague), Jurkat (human leukemia cell line, ECACC), Cos-7 (immortalized monkey kidney fibroblasts, ATCC) and MCF-10A (human mammary epithelial cells, ATCC). Caco-2, MCF-7, BLM, Cos-7 and A549 cells were cultured in Dulbecco’s Modified Eagle’s Medium (DMEM) with high glucose and sodium pyruvate (GE Healthcare, Piscataway, NJ, USA); HCT116 lines, HeLa, MDA-MB-231 and Jurkat were cultured in RPMI-1640 medium; and MCF10A cells were cultured in high glucose DMEM/F12 (Dulbecco’s Modified Eagle’s Medium F12). The media were enriched with 10% fetal bovine serum (FBS) and a 1% solution of a mixture of antibiotics and antimycotics 1× HyClone™ (GE Healthcare, Chicago, IL, USA). DMEM/F12 medium was supplemented with epidermal growth factor (EGF) (20 ng/mL final), hydrocortisone (0.5 μg/mL final) and insulin (10 μg/mL final) (Sigma-Aldrich Chemie, Steinheim, Germany). The cells were placed in an incubator at 37 °C with humidified air containing 5% CO2.
The MTT assay is a colorimetric method used to quantify the metabolic activity of cells. MTT (3-(4,5-di-methylthiazol-2-yl)2,5-diphenyltetrazolium bromide) (Sigma-Aldrich Chemie, Steinheim, Germany) is reduced by oxidoreductases in the cytosol of cells to light-absorbing formazan, the presence of which can be measured spectrophotometrically and determines the half-maximal inhibitory concentration (IC50). A549 cells were seeded in […] culture plates at a density of 5 × 10^3 per well. After 24 h of cultivation, the tested substance 49 was added in concentrations of 10, 50 and 100 µM.
We also incubated the cells with chloroquine at concentrations of 5–20 µM, which was added 1 h before the addition of the test substance, and cisplatin at concentrations of 3–10 µM. Cisplatin was added 24 h after the addition of 49. After 72 h of incubation, 10 µL of MTT (5 mg/mL) was added to each well. After 4 h, formazan crystals formed in the wells, which were dissolved in 100 uL of 10% SDS (sodium dodecyl sulfate). After 24 h, the absorbance was measured at a wavelength of 540 nm using an automated Cytation™ 3 Cell Imaging Multi-Mode Reader (Biotek, Winooski, VT, USA). These experiments were performed in three independent replicates.

LC3A/B = assay: Western blot, LC3A/B; format: cell-based, human; conditions: A549, all time periods
Description: LC3A/B, a microtubule-associated protein 1A/1B-light chain 3 (LC3), is a soluble intracellular protein. After synthesis of the pro-LC3 protein, this protein is first cleaved to form its cytosolic form known as LC3-I. The cytosolic form of LC3 (LC3-I) conjugates with phosphatidylethanolamine to form the LC3-phosphatidylethanolamine conjugate (LC3-II), which is recruited to autophagosomal membranes. After the formation of autophagosomes, their fusion with lysosomes occurs, autolysosomes are formed, and intra-autophagosomal material (cytoplasmic components including cytosolic proteins and organelles) is degraded by lysosomal hydrolases. Changes in the levels of the autophagosomal marker LC3-II are considered a sign of ongoing autophagy, and its lysosomal turnover thus reflects autophagic activity. […] Association of LC3A/B up-regulation and autophagy induction has also been referred previously.
A549 cells were seeded on Petri dishes (55 cm^2) at a density of 1 × 10^6 and allowed to culture in the medium. After 24 h, the test substance was added, and the cells were incubated for 24, 48 and 72 h. […] After lysis, the cells were sonicated, and the protein concentration in the samples was quantified using the Pierce® BCA Protein Assay Kit (Thermo Scientific, Rockford, IL, USA) and measured by an automated Cytation™ 3 Cell Imaging Multi-Mode Reader (Biotek) at a wavelength of 570 nm. […]

CC(C)(C)OC(=O)n1cc(CNC(=O)Nc2ccc(NC(=O)NCc3cn(C(=O)OC(C)(C)C)c4ccccc34)cc2)c2ccccc21 [Compound 49, N,N′-(1,4-phenylene)bis{N′-[1-(tert-butoxycarbonyl)indol-3-yl]methyl (urea)}]
IC50 (MCF10A; Homo sapiens, MCF-10A, 72 h incubation, MTT, non-cancer cells): 55.1 ± 4.1 µM | Selectivity index—A549 cells vs. non-cancer cells (MCF10A) (MCF10A; IC50 MCF10A / IC50 A549): 6.3 | LC3A/B protein expression (LC3A/B): significantly increased
